Reference: patent US9588122B2, “Methods of treating cancer sensitive to anti-EGFR therapy and modifying treatment using peroxiredoxin 6 biomarker” (The Board of Trustees of the Leland Stanford Junior …, priority 2013, dated 2017)

Experiments:
[1] = test system: A431; assay: Dose-dependent change in panel protein levels by western blot; format: cell-based, human; conditions: for BAG4 protein level change / CAD17 protein level change / CBFB protein level change / Claudin 1 protein level change / ELAVL-1 protein level change / EpCAM protein level change / HSPG2 protein level change / PDCD4 protein level change / PRDX6 protein level change / QARS protein level change / S100A9 protein level change / SERPINE1 protein level change / SNX5 protein level change / TESTICAN2 protein level change / TNFAIP2 protein level change / TROP-2 protein level change: dose-dependent, 16 h; for changes in levels of the 16 validated proteins (immunoblots): erlotinib 100-1,000 nM, paclitaxel 10-100 nM; for BAG4 protein level change: key: (+) for increase; (−) for decrease; N.C.: (N.C) for no change; (~) for not detected; for CAD17 protein level change: key: (+) for increase; (−) for decrease; N.C.: (N.C) for no change; (~) for not detected; for CBFB protein level change: key: (+) for increase; (−) for decrease; N.C.: (N.C) for no change; (~) for not detected; for Claudin 1 protein level change: key: (+) for increase; (−) for decrease; N.C.: (N.C) for no change; (~) for not detected
Procedure: (§1) Lysates were sonicated for 10 minutes, heated at 95° C. for 10 minutes, and centrifuged for 15 minutes at 20,000×g. The supernatant was cleared through a 0.22-micron filter and protein concentration was determined (BCA, BioRad, Hercules, Calif.). Lysates were subject to SDS-PAGE and subsequent immunoblot. For in vivo experiments, mouse tumor pieces from 5 mice were pooled and suspended in RAF buffer and homogenized with a high-speed blender. The homogenate was centrifuged for 5 min at 200×g. The supernatant was sonicated on ice for 2 minutes and centrifuged for 1 hr at 12,000×g. The supernatant (soluble fraction) was cleared through a 0.22-micron filter and processed as above. The pellet (insoluble fraction) was resuspended in RAF buffer with 2% SDS and DTT, heated at 95° C. and sonicated prior to processing.

[2] = test system: NSCLC patients; assay: PRDX6 levels in circulation of NSCLC patients before and after Tarceva; format: in vivo, human
From the text: To validate if this temporal profile is replicated in a clinical setting, the plasma and/or sera from human NSCLC patients was studied before and after Tarceva® (erlotinib) treatment. […] Serum samples from MRN #48 (FIG. 10A) were taken before and after treatment with Tarceva®. […] Plasma samples were obtained before treatment, and at 2 weeks and 4 weeks post initiation of treatment.

[3] = test system: NSCLC cells; assay: Biomarker profiles / PRDX6 shedding of treated NSCLC (Example 3); format: cell-based
[4] = test system: H1650; assay: Dose-dependent change in panel protein levels by western blot; conditions: 16 h
Procedure: as §1

[5] = test system: H23; assay: as above; conditions: 16 h
Procedure: as §1

[6] = test system: H1975; assay: as above; conditions: 16 h
Procedure: as §1

[7] = test system: A431 xenografts; assay: A431 subcutaneous xenograft study (Example 2)
[8] = test system: H1975 xenografts; assay: H1975 xenograft study (Example 2)
[9] = test system: A431 xenografts; assay: A431 xenograft model (Example 1); format: in vivo, mice
From the text: . […] . Control animals received vehicle alone (20 animals).

[10] = test system: A431-ZDR tumors; assay: Gefitinib-resistant A431-ZDR xenograft model (Example 1); format: in vivo, mice; conditions: treated vs untreated controls
Procedure: Lysates were sonicated for 10 minutes, heated at 95° C. for 10 minutes, and centrifuged for 15 minutes at 20,000×g. The supernatant was cleared through a 0.22-micron filter and protein concentration was determined (BCA, BioRad, Hercules, Calif.). Lysates were subject to SDS-PAGE and subsequent immunoblot. For in vivo experiments, mouse tumor pieces from 5 mice were pooled and suspended in RAF buffer and homogenized with a high-speed blender. The homogenate was centrifuged for 5 min at 200×g. The supernatant was sonicated on ice for 2 minutes and centrifuged for 1 hr at 12,000×g. The supernatant (soluble fraction) was cleared through a 0.22-micron filter and processed as above. The pellet (insoluble fraction) was resuspended in RAF buffer with 2% SDS and DTT, heated at 95° C. and sonicated prior to processing. Serum from 5 mice was pooled and depleted using two MARS-3 columns (Agilent) connected in tandem with HPLC. The unbound fraction was concentrated to a final concentration of 2 mg/ml and processed as above.

[11] = test system: A431 cells; conditions: previously shown; read-out: IC50 of paclitaxel in A431 cells; cited from earlier work
[12] = patient MRN 9, Pre-Tarceva 1.07 +/− 0.03
[13] = patient MRN 48, Pre-Tarceva 0.27 +/− 0.01
[14] = patient MRN 91, Pre-Tarceva 0.65 +/− 0.09

O=c1[nH]c2ccccc2n1C1CCN(Cc2ccc(-c3nc4cc5[nH]cnc5cc4nc3-c3ccccc3)cc2)CC1 [A6730]
BAG4 protein level change ([1]; western blot): + | CAD17 protein level change ([1]; western blot): N.C. | CBFB protein level change ([1]; western blot): + | Claudin 1 protein level change ([1]; western blot): + | ELAVL-1 protein level change ([1]; western blot): N.C. | EpCAM protein level change ([1]; western blot): N.C. | HSPG2 protein level change ([1]; western blot): N.C. | PDCD4 protein level change ([1]; western blot): N.C. | PRDX6 protein level change ([1]; western blot): N.C. | QARS protein level change ([1]; western blot): + | S100A9 protein level change ([1]; western blot): N.C. | SERPINE1 protein level change ([1]; western blot): N.C. | SNX5 protein level change ([1]; western blot): N.C. | TESTICAN2 protein level change ([1]; western blot): N.C. | TNFAIP2 protein level change ([1]; western blot): + | TROP-2 protein level change ([1]; western blot): N.C.

COc1cccc(-c2cc(=O)c3ccccc3o2)c1N [PD98059]
Claudin-1 expression ([1]; AKT or MAPK pathway inhibition): changes in expression | panel proteins that showed a change in abundance ([1]; AKT or MAPK pathway inhibition): CAD17, PDCD4, S100A9, SERPINE1, and Testican-2 | panel proteins unchanged by treatment ([1]; AKT or MAPK pathway inhibition): ELAVL-1, EpCAM, HSPG2, TROP2, and SNX5 | BAG4 protein level change ([1]; western blot): N.C. | CAD17 protein level change ([1]; western blot): + | CBFB protein level change ([1]; western blot): N.C. | Claudin 1 protein level change ([1]; western blot): + | ELAVL-1 protein level change ([1]; western blot): N.C. | EpCAM protein level change ([1]; western blot): N.C. | HSPG2 protein level change ([1]; western blot): N.C. | PDCD4 protein level change ([1]; western blot): + | PRDX6 protein level change ([1]; western blot): + | QARS protein level change ([1]; western blot): N.C. | S100A9 protein level change ([1]; western blot): + | SERPINE1 protein level change ([1]; western blot): + | SNX5 protein level change ([1]; western blot): N.C. | TESTICAN2 protein level change ([1]; western blot): + | TNFAIP2 protein level change ([1]; western blot): N.C. | TROP-2 protein level change ([1]; western blot): N.C.

C#Cc1cccc(Nc2ncnc3cc(OCCOC)c(OCCOC)cc23)c1 [erlotinib]
circulating PRDX6 profile in patients with positive response ([2]; at least three patients, pilot data): initial rise in circulating PRDX6 (2-4 weeks post-therapy) followed by a decline in PRDX6 levels by 8 weeks post-therapy | PRDX6 level in circulation, Post-Tarceva (2 wks.) [2, 12]: 1.63 +/− 0.05 ng PRDX6/Total Protein in circulation | PRDX6 level in circulation, Post-Tarceva (3.5 to 4 wks.) [2, 12]: 0.33 +/− 0.11 ng PRDX6/Total Protein in circulation | PRDX6 level in circulation, Post-Tarceva (6.5-8 wks.) [2, 12]: 0.45 +/− 0.05 ng PRDX6/Total Protein in circulation | PRDX6 level in circulation, Post-Tarceva (2 wks.) [2, 13]: 0.76 +/− 0.08 ng PRDX6/Total Protein in circulation | PRDX6 level in circulation, Post-Tarceva (3.5 to 4 wks.) [2, 13]: 0.42 +/− 0.02 ng PRDX6/Total Protein in circulation | PRDX6 level in circulation, Post-Tarceva (3.5 to 4 wks.) [2, 14]: 5.0 +/− 0.3 ng PRDX6/Total Protein in circulation | PRDX6 level in circulation, Post-Tarceva (6.5-8 wks.) [2, 14]: 0.46 +/− 0.18 ng PRDX6/Total Protein in circulation | biomarker profiles by treated NSCLC cells ([3]; compared with Iressa treated cells, data not shown): the same as Iressa | BAG4 protein level change ([1]; western blot): + | CAD17 protein level change ([1]; western blot): + | CBFB protein level change ([1]; western blot): + | Claudin 1 protein level change ([1]; western blot): + | ELAVL-1 protein level change ([1]; western blot): + | EpCAM protein level change ([1]; western blot): + | HSPG2 protein level change ([1]; western blot): + | PDCD4 protein level change ([1]; western blot): + | PRDX6 protein level change ([1]; western blot): + | QARS protein level change ([1]; western blot): + | S100A9 protein level change ([1]; western blot): + | SERPINE1 protein level change ([1]; western blot): + | SNX5 protein level change ([1]; western blot): − | TESTICAN2 protein level change ([1]; western blot): + | TNFAIP2 protein level change ([1]; western blot): + | TROP-2 protein level change ([1]; western blot): + | changes in levels of the 16 validated proteins (immunoblots) [1]: mirrored the effect of gefitinib

COc1cc2ncnc(Nc3ccc(F)c(Cl)c3)c2cc1OCCCN1CCOCC1 [gefitinib]
BAG4 protein level change [4]: N.C. | CAD17 protein level change [4]: + | CBFB protein level change [4]: + | Claudin 1 protein level change [4]: + | ELAVL-1 protein level change [4]: + | EpCAM protein level change [4]: + | HSPG2 protein level change [4]: + | PDCD4 protein level change [4]: + | PRDX6 protein level change [4]: + | QARS protein level change [4]: + | S100A9 protein level change [4]: N.C. | SERPINE1 protein level change [4]: + | SNX5 protein level change [4]: N.C. | TESTICAN2 protein level change [4]: N.C. | TNFAIP2 protein level change [4]: + | TROP-2 protein level change [4]: + | BAG4 protein level change [5]: + | CAD17 protein level change [5]: + | CBFB protein level change [5]: N.C. | Claudin 1 protein level change [5]: N.C. | ELAVL-1 protein level change [5]: N.C. | EpCAM protein level change [5]: N.C. | HSPG2 protein level change [5]: N.C. | PDCD4 protein level change [5]: N.C. | PRDX6 protein level change [5]: N.C. | QARS protein level change [5]: N.C. | S100A9 protein level change [5]: N.C. | SERPINE1 protein level change [5]: N.C. | SNX5 protein level change [5]: N.C. | TNFAIP2 protein level change [5]: + | TROP-2 protein level change [5]: N.C. | BAG4 protein level change [6]: N.C. | CAD17 protein level change [6]: N.C. | CBFB protein level change [6]: N.C. | Claudin 1 protein level change [6]: N.C. | ELAVL-1 protein level change [6]: N.C. | EpCAM protein level change [6]: N.C. | HSPG2 protein level change [6]: N.C. | PDCD4 protein level change [6]: N.C. | PRDX6 protein level change [6]: N.C. | S100A9 protein level change [6]: N.C. | SERPINE1 protein level change [6]: N.C. | SNX5 protein level change [6]: N.C. | TESTICAN2 protein level change [6]: N.C. | TNFAIP2 protein level change [6]: N.C. | TROP-2 protein level change [6]: N.C. | tumor growth ([7]; 50 mg/kg daily oral, vs vehicle Day 7 P=0.0102, Day 11 P=0.002, Day 15 P=0.0001): marked arrest in tumor growth | mean serum PRDX6 levels ([7]; between Day 0 and Day 15, change vs vehicle P<0.0001): decreased | tumor PRDX6 (tumor lysates) ([7]; day 15, vs vehicle, P=0.2185): no statistically significant difference | difference in mean change from baseline in serum PRDX6 normalized to tumor volume ([7]; vs vehicle, P=0.0027): statistically significant | tumor response (tumor volumes) ([8]; 50 mg/kg daily oral, vs vehicle): no response | mean serum PRDX6 levels ([8]; after treatment): increased | PRDX6 levels with respect to treatment ([8]; models carrying Iressa-resistant NSCLC xenografts): did not change | difference in mean change from baseline in serum PRDX6 ([8]; vs vehicle, Day 4 (P=0.461), Day 10-14 (P=0.3404)): not statistically significant | difference in mean change from baseline in serum PRDX6 normalized to tumor volume ([8]; vs vehicle, Day 4 (P=0.7922), Day 10-14 (P=0.8849)): not significant | tumor size and growth ([9]; 50 mg/kg gefitinib vs untreated): significantly smaller than those in untreated mice and grew at a slower rate | panel proteins whose in vivo change was concordant with in vitro experiments ([9]; A431 tumor lysates, immunoblot): 12 of the 16 | VAMP3, KLF5, and GLTSCR2 level ([1]; 100 nM): marginal increase | level of all other verified proteins ([1]; 100, 500, and 1,000 nM, 16 hrs, western blot): dose-dependent increase | ELAVL-1 response at higher doses ([1]; 500 and 1,000 nM vs 100 nM, 16 hrs, western blot): not amplified at higher doses | BAG4 protein level change ([1]; western blot): + | CAD17 protein level change ([1]; western blot): + | CBFB protein level change ([1]; western blot): + | Claudin 1 protein level change ([1]; western blot): + | ELAVL-1 protein level change ([1]; western blot): + | EpCAM protein level change ([1]; western blot): + | HSPG2 protein level change ([1]; western blot): + | PDCD4 protein level change ([1]; western blot): + | PRDX6 protein level change ([1]; western blot): + | QARS protein level change ([1]; western blot): + | S100A9 protein level change ([1]; western blot): + | SERPINE1 protein level change ([1]; western blot): + | SNX5 protein level change ([1]; western blot): − | TESTICAN2 protein level change ([1]; western blot): + | TNFAIP2 protein level change ([1]; western blot): + | TROP-2 protein level change ([1]; western blot): + | tumor growth rates [10]: No differences in tumor growth rates

CC(=O)O[C@H]1C(=O)[C@@]2(C)[C@H]([C@H](OC(=O)c3ccccc3)[C@]3(O)C[C@H](OC(=O)[C@H](O)[C@@H](NC(=O)c4ccccc4)c4ccccc4)C(C)=C1C3(C)C)[C@]1(OC(C)=O)CO[C@@H]1C[C@@H]2O [paclitaxel]
IC50 [11]: ~0.01 µM | shedding of PRDX6 ([3]; effective paclitaxel treatment on NSCLC): failed to elicit a similar shedding of PRDX6 | BAG4 protein level change ([1]; western blot): N.C. | CAD17 protein level change ([1]; western blot): N.C. | CBFB protein level change ([1]; western blot): N.C. | Claudin 1 protein level change ([1]; western blot): N.C. | ELAVL-1 protein level change ([1]; western blot): N.C. | EpCAM protein level change ([1]; western blot): N.C. | HSPG2 protein level change ([1]; western blot): N.C. | PDCD4 protein level change ([1]; western blot): N.C. | PRDX6 protein level change ([1]; western blot): N.C. | QARS protein level change ([1]; western blot): N.C. | S100A9 protein level change ([1]; western blot): N.C. | SERPINE1 protein level change ([1]; western blot): N.C. | SNX5 protein level change ([1]; western blot): N.C. | TESTICAN2 protein level change ([1]; western blot): N.C. | TNFAIP2 protein level change ([1]; western blot): N.C. | TROP-2 protein level change ([1]; western blot): N.C. | changes in levels of the 16 validated proteins (immunoblots) [1]: none of the proteins tested demonstrated a change in abundance
